Assay results taken from ChEMBL document CHEMBL1140652 (Bioorg Med Chem Lett, 2007).
Values after ≈ are worked out from the molar mass of the structure shown.

Legend:
Escherichia coli = assay: microbe, parasite or virus in culture
Description: Inhibition of transcription and translation activity in Escherichia coli by luciferase reporter assay

Staphylococcus aureus = assay: microbe, parasite or virus in culture; details: SA1
Description: Antibacterial activity against Staphylococcus aureus UC76 SA1

Streptococcus pneumoniae = assay: microbe, parasite or virus in culture; details: SV1
Description: Antibacterial activity against Streptococcus pneumoniae SV1 SP3

Enterococcus faecalis = assay: microbe, parasite or virus in culture
Description: Antibacterial activity against Enterococcus faecalis MGH2 EF1-1

Haemophilus influenzae = assay: microbe, parasite or virus in culture
Description: Antibacterial activity against Haemophilus influenzae HI3542

Moraxella catarrhalis = assay: microbe, parasite or virus in culture
Description: Antibacterial activity against Moraxella catarrhalis BC-3531

physchem = details: potassium phosphate buffer, pH 6.5
Description: Aqueous solubility in potassium phosphate buffer at pH 6.5 by laser nephrometry

| SMILES | IC50 (Escherichia coli) [nM] | MIC (Staphylococcus aureus) [µg/mL] | MIC (Streptococcus pneumoniae) [µg/mL] | MIC (Enterococcus faecalis) [µg/mL] | MIC (Haemophilus influenzae) [µg/mL] | MIC (Moraxella catarrhalis) [µg/mL] | solubility kinetic (physchem) [µg/mL] |
| --- | --- | --- | --- | --- | --- | --- | --- |
| CC(=O)NC[C@H]1CN(c2ccc3c(c2)CCCc2c(N)n[nH]c2-3)C(=O)O1 | 1200 | 4 (≈ 11.3 µM) | 0.5 (≈ 1.41 µM) | 2 (≈ 5.63 µM) | 4 (≈ 11.3 µM) | 2 (≈ 5.63 µM) | – |
| COCCNc1n[nH]c2c1CCCc1cc(N3C[C@H](CNC(C)=O)OC3=O)ccc1-2 | 2600 | 2 (≈ 4.84 µM) | 1 (≈ 2.42 µM) | 2 (≈ 4.84 µM) | 1 (≈ 2.42 µM) | 8 (≈ 19.3 µM) | – |
| CC(=O)NC[C@H]1CN(c2ccc3c(c2)CCCc2c(NC(=O)C(O)CO)n[nH]c2-3)C(=O)O1 (some centres undefined) | 780 | 16 (≈ 36.1 µM) | 2 (≈ 4.51 µM) | 16 (≈ 36.1 µM) | 32 (≈ 72.2 µM) | 32 (≈ 72.2 µM) | 46 (≈ 104 µM) |
| CC(=O)NC[C@H]1CN(c2ccc3c(c2)CCCc2c(NCCCN)n[nH]c2-3)C(=O)O1 | 450 | 32 (≈ 77.6 µM) | 4 (≈ 9.7 µM) | 8 (≈ 19.4 µM) | > 64 | 32 (≈ 77.6 µM) | > 70 |
| CC(=O)NC[C@H]1CN(c2ccc3c(c2)CCCc2c(NCCc4ccccn4)n[nH]c2-3)C(=O)O1 | 1700 | 8 (≈ 17.4 µM) | 0.5 (≈ 1.09 µM) | 1 (≈ 2.17 µM) | 8 (≈ 17.4 µM) | 8 (≈ 17.4 µM) | – |
| COCCCNc1n[nH]c2c1CCCc1cc(N3C[C@H](CNC(C)=O)OC3=O)ccc1-2 | 2900 | 4 (≈ 9.36 µM) | 1 (≈ 2.34 µM) | 4 (≈ 9.36 µM) | 16 (≈ 37.4 µM) | 16 (≈ 37.4 µM) | – |
| CCNc1n[nH]c2c1CCCc1cc(N3C[C@H](CNC(C)=O)OC3=O)ccc1-2 | 1300 | 1 (≈ 2.61 µM) | 0.25 (≈ 0.652 µM) | 1 (≈ 2.61 µM) | 4 (≈ 10.4 µM) | 4 (≈ 10.4 µM) | – |
| CC(=O)NC[C@H]1CN(c2ccc3c(c2)CCCc2c(NC(C)C)n[nH]c2-3)C(=O)O1 | 2200 | 4 (≈ 10.1 µM) | 0.5 (≈ 1.26 µM) | 2 (≈ 5.03 µM) | 8 (≈ 20.1 µM) | 8 (≈ 20.1 µM) | – |
| CC(=O)NC[C@H]1CN(c2ccc3c(c2)CCCc2c(NC(=O)CO)n[nH]c2-3)C(=O)O1 | 1300 | 16 (≈ 38.7 µM) | 4 (≈ 9.68 µM) | 4 (≈ 9.68 µM) | 16 (≈ 38.7 µM) | 16 (≈ 38.7 µM) | – |
| CCCNc1n[nH]c2c1CCCc1cc(N3C[C@H](CNC(C)=O)OC3=O)ccc1-2 | 2500 | 2 (≈ 5.03 µM) | 0.25 (≈ 0.629 µM) | 1 (≈ 2.52 µM) | 4 (≈ 10.1 µM) | 8 (≈ 20.1 µM) | – |
| CC(=O)NC[C@H]1CN(c2ccc3c(c2)CCCc2cn[nH]c2-3)C(=O)O1 | 450 | 0.5 (≈ 1.47 µM) | 0.25 (≈ 0.734 µM) | 0.25 (≈ 0.734 µM) | 2 (≈ 5.88 µM) | 2 (≈ 5.88 µM) | 14 (≈ 41.1 µM) |
| CC(=O)NC[C@H]1CN(c2ccc3c(c2)CCCc2c(NCCN4CCOCC4)n[nH]c2-3)C(=O)O1 | 1900 | 16 (≈ 34.1 µM) | 2 (≈ 4.27 µM) | 8 (≈ 17.1 µM) | 8 (≈ 17.1 µM) | 16 (≈ 34.1 µM) | – |
| COc1ccc(CNc2n[nH]c3c2CCCc2cc(N4C[C@H](CNC(C)=O)OC4=O)ccc2-3)cc1 | 2200 | 1 (≈ 2.1 µM) | 0.5 (≈ 1.05 µM) | 1 (≈ 2.1 µM) | 8 (≈ 16.8 µM) | 4 (≈ 8.41 µM) | – |
| CCN(CC)CCCNc1n[nH]c2c1CCCc1cc(N3C[C@H](CNC(C)=O)OC3=O)ccc1-2 | 13000 | 64 (≈ 137 µM) | 4 (≈ 8.54 µM) | 32 (≈ 68.3 µM) | 32 (≈ 68.3 µM) | 32 (≈ 68.3 µM) | – |
| CC(=O)NC[C@H]1CN(c2ccc3c(c2)CCCc2c(NCc4ccccc4)n[nH]c2-3)C(=O)O1 | 2000 | 2 (≈ 4.49 µM) | 1 (≈ 2.24 µM) | 1 (≈ 2.24 µM) | 8 (≈ 18 µM) | 4 (≈ 8.98 µM) | – |
| CC(=O)NC[C@H]1CN(c2ccc3c(c2)CCCc2c(NCCN)n[nH]c2-3)C(=O)O1 | 800 | 32 (≈ 80.3 µM) | 4 (≈ 10 µM) | 16 (≈ 40.2 µM) | 16 (≈ 40.2 µM) | 4 (≈ 10 µM) | > 70 |
| CC(=O)NC[C@H]1CN(c2ccc3c(c2)CCCc2c(Nc4ccccc4)n[nH]c2-3)C(=O)O1 | – | 1 (≈ 2.32 µM) | 0.5 (≈ 1.16 µM) | 0.5 (≈ 1.16 µM) | 4 (≈ 9.27 µM) | 2 (≈ 4.64 µM) | – |
| CNc1n[nH]c2c1CCCc1cc(N3C[C@H](CNC(C)=O)OC3=O)ccc1-2 | 1000 | 2 (≈ 5.41 µM) | 0.5 (≈ 1.35 µM) | 1 (≈ 2.71 µM) | 4 (≈ 10.8 µM) | 2 (≈ 5.41 µM) | > 70 |
| CC(=O)NC[C@H]1CN(c2ccc3c(c2)CCCc2c(NCCc4ccc(O)cc4)n[nH]c2-3)C(=O)O1 | 2100 | 2 (≈ 4.21 µM) | 0.5 (≈ 1.05 µM) | 1 (≈ 2.1 µM) | 4 (≈ 8.41 µM) | 2 (≈ 4.21 µM) | – |
| CC(=O)NC[C@H]1CN(c2ccc3c(c2)CCCc2c(NCCCO)n[nH]c2-3)C(=O)O1 | 1800 | 8 (≈ 19.3 µM) | 4 (≈ 9.67 µM) | 8 (≈ 19.3 µM) | 16 (≈ 38.7 µM) | 32 (≈ 77.4 µM) | – |
